# Experimental data reported in patent US5969099A, “Growth factor analogs” (The Secretary of State for Defence, priority 1995, dated 1999).
# Numbered stars: 1 amine (or outer) side, 2 acyl side, 3 side chain; on linkers, the order of the positions; unused ones are H or OH. Bridge positions count the residues as written; N and C are the ends. Square brackets hold non-standard residues; d marks the D form. Ends that are not written are not given here. Peptide text beside a SMILES is read from it. DABHC = 2-azabicyclo[2,2,1]heptane-3-carboxylic acid, D-form (1R,3R,4S), O=C([C@H]1[C@H]2CC[C@H](C2)N1[*:1])[*:2]; X2 = O=C([C@@H]1[C@@H]2CC[C@@H](C2)N1[*:1])[*:2]; X1 = O=C([C@H]1[C@H]2CC[C@H](C2)N1[*:1])[*:2]; LABHC = not defined here
# Columns and labels:
# NR6 cells = assay: Mitogenic activity on parental NR6 cell line which lacks EGF-R; format: cell-based, mouse; details: doses maximally stimulating for NR6/HER cells; FIG. 3
# NR6/HER cells [1] = format: cell-based, mouse
# Method: NR6 and NR6/HER cells (NR6 mouse fibroblasts transfected with human EGF-R expression plasmid) and HN5 squamous carcinoma cells (see Cowley, G. P. et al, Br. J. Cancer 1986, 53, 2230229) were routinely cultured in Dulbecco's Modified Eagles Medium (DMEM) containing 10% foetal bovine serum (FBS), 2 mM glutamine, non-essential amino acids, 10 U/ml penicillin and 10 μg/ml streptomycin at 37° C. in a humidified atmosphere of air containing 5% CO2. G418 (100 μg/ml) was also included in the NR6/HER growth medium as selection for EGF Receptor encoding transformants.
# (§1) The ability of the Example 1 peptide to induce DNA synthesis in confluent and quiescent cells was assayed as described in Davies, D. E. et al, Br. J. Cancer 1994, 70, 263-269 but using NR6/HER or NR6 cells in place of human foreskin fibroplasts.
# NR6/HER cells [2] = assay: Effect of peptide on the mitogenic response induced by TGFA; format: cell-based, mouse
# Method: as §1
# EGF Receptor = molecular target: T1, EGF Receptor (Homo sapiens, UniProt P00533); assay: EGF Receptor Tyr phosphorylation assay in HN5 cells (Western blotting); format: cell-based; details: 10 minutes at room temperature
# T1 construct: endogenous in cells; host or cells: HN5 squamous carcinoma cells
# Method: EGF Receptor Tyr phosphorylation assays were performed using HN5 cells at approximately 50% confluence in 96-well plates. Cells were plated in 10% FBS/DMEM and allowed to adhere overnight. Medium was removed and wells washed twice with DMEM. The peptide was diluted in DMEM and added in 50 μl volume and cells incubated for 10 minutes at room temperature. At the end of incubation, reagents were removed and the cells washed once with 50 μl/well buffered saline and then rapidly solubilised with 50 μl/well×1 sample buffer containing phosphatase and protease inhibitors (1 mM NaF, 1 mM Na3 VO4, 100 μM PMSF). Enhanced phosphorylation of the 170 kDa EGF-R was determined by Western Blotting after SDS polyacrylamide gel electrophoresis as in Holt, S. J. et al, Biochem. Pharmacol. 1994, 47, 117-126.
# [3] = molecular target: human EGF Receptor on NR6/HER cells (NR6 mouse fibroblasts transfected with human EGF-R expression plasmid) (human, UniProt P00533); assay: cell-based or functional assay
# T1 sequence (P00533 25-1210): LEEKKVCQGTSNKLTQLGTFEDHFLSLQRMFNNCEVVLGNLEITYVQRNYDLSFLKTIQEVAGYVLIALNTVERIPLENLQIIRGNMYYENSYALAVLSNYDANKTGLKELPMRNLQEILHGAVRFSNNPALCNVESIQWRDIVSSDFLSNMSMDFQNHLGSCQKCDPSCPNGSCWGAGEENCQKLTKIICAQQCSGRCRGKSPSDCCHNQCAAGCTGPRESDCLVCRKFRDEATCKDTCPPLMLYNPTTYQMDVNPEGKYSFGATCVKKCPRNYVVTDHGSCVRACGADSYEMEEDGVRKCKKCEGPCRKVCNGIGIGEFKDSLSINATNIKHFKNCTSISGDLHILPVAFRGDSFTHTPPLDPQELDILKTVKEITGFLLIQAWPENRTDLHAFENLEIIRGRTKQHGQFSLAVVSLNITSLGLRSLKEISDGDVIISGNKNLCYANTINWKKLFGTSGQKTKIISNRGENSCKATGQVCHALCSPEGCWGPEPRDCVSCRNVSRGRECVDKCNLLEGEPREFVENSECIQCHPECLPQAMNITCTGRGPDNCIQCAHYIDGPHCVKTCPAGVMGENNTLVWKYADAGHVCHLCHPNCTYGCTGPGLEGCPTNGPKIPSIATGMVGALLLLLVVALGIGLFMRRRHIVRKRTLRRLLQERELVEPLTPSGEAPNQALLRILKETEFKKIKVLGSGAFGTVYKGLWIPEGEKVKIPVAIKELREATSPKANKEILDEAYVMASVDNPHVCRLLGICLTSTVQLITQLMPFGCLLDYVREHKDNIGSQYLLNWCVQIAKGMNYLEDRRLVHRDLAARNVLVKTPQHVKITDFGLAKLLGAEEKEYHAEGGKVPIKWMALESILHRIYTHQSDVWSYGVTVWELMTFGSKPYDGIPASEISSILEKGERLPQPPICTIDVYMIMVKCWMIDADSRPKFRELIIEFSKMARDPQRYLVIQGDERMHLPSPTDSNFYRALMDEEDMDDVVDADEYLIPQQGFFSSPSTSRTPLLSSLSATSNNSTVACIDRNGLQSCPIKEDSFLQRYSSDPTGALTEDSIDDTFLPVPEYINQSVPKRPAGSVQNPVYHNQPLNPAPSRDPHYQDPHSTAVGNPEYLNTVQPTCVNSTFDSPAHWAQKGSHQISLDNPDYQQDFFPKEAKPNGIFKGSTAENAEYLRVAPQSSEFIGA
Molecule,EC50 (NR6/HER cells [1]),"DNA synthesis (mitogenic activity), EC50 [3]",further results
PDGF,,,mitogenic response of NR6 cells (EGF-R negative) (NR6 cells): responsiveness of the cells to a mitogenic stimulus was confirmed
CC(C)C[C@@H]1NC(=O)[C@H](Cc2ccccc2)NC(=O)[C@H](CCCNC(=N)N)NC(=O)[C@@H](NC(=O)[C@@H](N)Cc2ccccc2)CSSC[C@@H](C(=O)O)NC(=O)[C@H](C)NC(=O)[C@H]2[C@H]3CC[C@H](C3)N2C(=O)[C@H](CCCCN)NC(=O)[C@H](CC(=O)O)NC(=O)[C@H](CCC(=O)O)NC(=O)[C@H](CCC(N)=O)NC(=O)[C@H](C(C)C)NC1=O [Example 1 peptide] (H-FCRFLVQEDK[X1]AC-OH; disulfide 2-13),130 µM,,
CC(C)C[C@@H]1NC(=O)[C@H](Cc2ccccc2)NC(=O)[C@H](CCCNC(=N)N)NC(=O)[C@@H](NC(=O)[C@@H](N)Cc2ccccc2)CSSC[C@@H](C(=O)O)NC(=O)[C@H](C)NC(=O)[C@@H]2[C@@H]3CC[C@@H](C3)N2C(=O)[C@H](CCCCN)NC(=O)[C@H](CC(=O)O)NC(=O)[C@H](CCC(=O)O)NC(=O)[C@H](CCC(N)=O)NC(=O)[C@H](C(C)C)NC1=O [peptide incorporating LABHC] (H-FCRFLVQEDK[X2]AC-OH; disulfide 2-13; N-terminus assumed),330 µM,,"effect on mitogenic response at maximal doses of TGFA (NR6/HER cells [2]; maximal doses of TGFA, FIG. 2(b)): Similar, but less pronounced; effect on mitogenic response at suboptimal doses of TGFA (NR6/HER cells [2]; suboptimal doses of TGFA, FIG. 2(a)): Similar, but less pronounced; EGF Receptor phosphorylation (EGF Receptor): Neither the Example 1 peptide nor the corresponding peptide incorporating LABHC appeared to lead to increased EGF Receptor phosphorylation"
FCRFLVQEDK[LABHC]AC (disulfide 2-13; reading uncertain),,330 µM,
FCRFLVQEDK[DABHC]AC (disulfide 2-13),,130 µM,
